For orientation: IC50 means the concentration that inhibits the measured activity by half.

The record followed here is patent US20250145631A1, “HETEROCYCLIC COMPOUND ACTING ON G12D MUTANT KRAS PROTEIN” (Astellas Pharma Inc., priority 2022, published 2025).

Common to all, as to format: cell-based
Assay [1] deals with human G12D mutant KRAS-positive pancreatic cancer line AsPC-1. The assay is described as follows: Non-anchorage-dependent cell growth inhibitory effect, spheroid 3D culture (Test Example 3). Particulars: ASPC1, 144 h, AsPC-1 spheroid 3D culture, 6 days; for IC50: CellTiter Glo 2.0, read-out: IC50 (non-anchorage-dependent cell growth inhibition); for inhibition at 10 µM: read-out: cell growth inhibition at the highest concentration evaluated. The essentials: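 AsPC-1 cells grown as spheroids in RPMI 1640 with 10% FBS at 37° C, 5% CO2, then exposed to compounds (10 μM to 0.3 nM final) for 6 days. Viability read by CellTiter Glo 2.0 luminescence. IC50 from Sigmoid-Emax regression with DMSO as 100% and cell-free medium as 0%.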
Background: ATP-based viability assays read luminescence as a measure of living cells.

For assay [2], the system named is phosphorylation of ERK (Thr202/Tyr204). The assay is described as follows: ERK phosphorylation inhibitory effect by Cell ELISA in AsPC-1 cells (Test Example 2). To be noted: Homo sapiens, ASPC1, overnight treatment, Cell ELISA, read-out: IC50 (ERK phosphorylation inhibition). The essentials: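 AsPC-1 cells (2.0×10^4/well, RPMI 1640 + 10% FBS) treated overnight with compounds (10 points, 10 μM to 0.3 nM final), then glyoxal-fixed and immunostained for phospho-ERK with IRDye 800CW secondary; 800-nm fluorescence read. IC50 by Sigmoid-Emax regression, normalized to DMSO (100%) and 1 μM trametinib (0%).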

Assay [3] has as its target T1, KRAS G12D (Homo sapiens, UniProt P01116, G12D).
T1 construct: host or cells: AsPC-1 (human pancreatic cancer line)
As to the kind of experiment: KRAS degradation activity by Cell ELISA in AsPC-1 cells (Test Example 1). Particulars: for Dmax: ASPC1, overnight treatment, read-out: Dmax (degradation rate at the concentration showing highest degradation); for Dmax / DC50: Cell ELISA; for DC50: overnight treatment, read-out: DC50 (50% degradation concentration of KRAS). Put shortly:
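AsPC-1 cells (2.0×10^4/well) treated overnight with compounds at 10 μM–0.3 nM (10 points), then fixed, permeabilised and stained for KRAS G12D (800 nm) and β-actin (700 nm) by in-cell ELISA. KRAS signal normalised to β-actin, DMSO set as 0% and actin-only staining as 100%; DC50 from Sigmoid-Emax regression up to Dmax.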
(In an ELISA, binding on a coated surface is turned into a signal by an enzyme label.)

SMILES strings stand for the structures.

T1 sequence (P01116 1-188 isoform P01116-2 G12D): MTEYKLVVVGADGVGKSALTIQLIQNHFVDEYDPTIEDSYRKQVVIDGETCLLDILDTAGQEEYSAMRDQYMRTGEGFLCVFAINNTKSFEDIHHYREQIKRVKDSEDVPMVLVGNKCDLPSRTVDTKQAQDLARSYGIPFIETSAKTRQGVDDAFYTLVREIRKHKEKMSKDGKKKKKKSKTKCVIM

For `Cc1c(F)cc2[nH]ncc2c1-c1c(C2CC2)cc2c(N3C[C@@H]4C[C@H]3CN4)nc(O[C@@H]3CCOC3)nc2c1OCc1ccc(C(=O)N2CCN(Cc3ccc4c(c3)n(C)c(=O)n4C3CCC(=O)NC3=O)C[C@@H]2C)cc1` (stereo partly drawn) [Example 36], in assay [1], the IC50 was found to be 159 nM. For the same compound, the IC50 in assay [2] turned out to be 78 nM. Also, in assay [3], the Dmax worked out at 80% and the DC50 turned out to be 79 nM.

`Cc1c(F)cc2[nH]ncc2c1-c1c(C2CC2)cc2c(N3C[C@@H]4C[C@H]3CN4)nc(OC3CCOCC3)nc2c1OCc1ccc(C(=O)N2CCN(Cc3ccc(CN4CCC(=O)NC4=O)cc3F)C[C@@H]2C)cc1` (atropisomer, axis not shown) [Example 26]: the IC50 in assay [1] turned out to be 1350 nM. Further, the IC50 in assay [2] came out at 2020 nM. Moreover, in assay [3], the Dmax turned out to be 67% and the DC50 was found to be 5220 nM.

Regarding `Cc1c(F)cc2[nH]ncc2c1-c1c(C2CC2)cc2c(N3C[C@@H]4C[C@H]3CN4)nc(OC3CCOCC3)nc2c1OCc1ccc(C(=O)N2CCN(Cc3ccn4c(N5CCC(=O)NC5=O)cnc4c3)C[C@@H]2C)cc1` (atropisomer, axis not shown; (M)) [Example 34, 1-(7-{[(3S)-4-{4-[({(7M)-6-cyclopropyl-4-[(1S,4S)-2,5-diazabicyclo[2.2.1]heptan-2-yl]-7-(6-fluoro-5-methyl-1H-indazol-4-yl)-2-[(oxan-4-yl)oxy]quinazolin-8-yl}oxy)methyl]benzoyl}-3-methylpiperazin-1-yl]methyl}imidazo[1,2-a]pyridin-3-yl)-1,3-diazinane-2,4-dione], in assay [1], the IC50 was 476 nM. For the same compound, the IC50 in assay [2] turned out to be 200 nM. In assay [3], the Dmax came out at 85% and the DC50 amounted to 202 nM.

Take `CO[C@@H](C)COc1nc(O[C@@H]2CCNC2)c2cc(C3CC3)c(-c3c(C)c(F)cc4[nH]ncc34)c(OCc3ccc(C(=O)N4CCN(Cc5ccc6c(c5)n(C)c(=O)n6C5CCC(=O)NC5=O)C[C@@H]4C)cc3)c2n1` (stereo partly drawn) [Example 39]: the IC50 in assay [1] was 52 nM. Moreover, in assay [2], the IC50 is 30 nM. In assay [3], the Dmax was 83% and the DC50 came out at 22 nM.

For the compound `Cc1c(F)cc2[nH]ncc2c1-c1c(C2CC2)cc2c(N3C[C@@H]4C[C@H]3CN4)nc(OC3CCOCC3)nc2c1OCc1ccc(C(=O)N2CCN(CCc3ccc4c(c3)c(N3CCC(=O)NC3=O)nn4C)C[C@@H]2C)cc1` (atropisomer, axis not shown) [Example 42], the IC50 in assay [1] was found to be 399 nM. In assay [2], the 50% inhibitory concentration (IC50) was determined as 365 nM. In assay [3], the Dmax stood at 89% and the DC50 stood at 294 nM.

As to `Cc1c(F)cc2[nH]ncc2c1-c1c(C2CC2)cc2c(N3C[C@@H]4C[C@H]3CN4)nc(OC3CCOCC3)nc2c1OCc1ccc(C(=O)N2CCC(CNc3cccc4c3C(=O)N(C3CCC(=O)NC3=O)C4=O)CC2)cc1` (stereo partly drawn) [Example 30], the IC50 in assay [1] was found to be 1440 nM. The IC50 in assay [2] was determined as 1280 nM. For the same compound, in assay [3], the Dmax came to 71% and the DC50 stood at 1480 nM.

In the case of `Cc1c(F)cc2[nH]ncc2c1-c1c(C2CC2)cc2c(N3C[C@@H]4C[C@H]3CN4)nc(OC3CCOCC3)nc2c1OCc1ccc(C(=O)N2CCN(Cc3cccc4c3oc(=O)n4C3CCC(=O)NC3=O)CC2)cc1` (stereo partly drawn) [Example 6], the inhibition at 10 µM in assay [1] amounted to 50%. In addition, the IC50 in assay [2] was found to be 3940 nM. For the same compound, in assay [3], the Dmax was 49% and the DC50 was 2730 nM.

Take `Cc1c(F)cc2[nH]ncc2c1-c1c(C2CC2)cc2c(N3C[C@@H]4C[C@H]3CN4)nc(OC3CCOCC3)nc2c1OCc1ccc(C(=O)N2CCN(Cc3ccc4c(N5CCC(=O)NC5=O)n(C)nc4c3)C[C@@H]2C)cc1` (atropisomer, axis not shown) [Example 22]: the IC50 in assay [1] amounted to 128 nM. The IC50 in assay [2] was 283 nM. Also, in assay [3], the Dmax amounted to 84% and the DC50 amounted to 114 nM.

Take `Cc1c(F)cc2[nH]ncc2c1-c1c(C2CC2)cc2c(N3C[C@@H]4C[C@H]3CN4)nc(OC3CCOCC3)nc2c1OCc1ccc(C(=O)N2CCN(CCOc3cccc(N4CCC(=O)NC4=O)c3)CC2)cc1` (atropisomer, axis not shown) [Example 28]: the IC50 in assay [1] came to 2020 nM; in assay [2], 2190 nM. Also, the Dmax in assay [3] came out at 54%. In addition, in assay [3], the DC50 was found to be 5530 nM.

Turning to `Cc1c(F)cc2[nH]ncc2c1-c1c(C2CC2)cc2c(N3C[C@@H]4C[C@H]3CN4)nc(OC3CCOCC3)nc2c1OCc1ccc(C(=O)N2CCN(Cc3ccc4c(N5CCC(=O)NC5=O)nn(C)c4c3)C[C@H]2C)cc1` (atropisomer, axis not shown) [Example 15], the IC50 in assay [1] was 211 nM. The IC50 in assay [2] came out at 503 nM. In assay [3], the Dmax was found to be 60% and the DC50 amounted to 406 nM.

On to `Cc1c(F)cc2[nH]ncc2c1-c1c(C2CC2)cc2c(N3C[C@@H]4C[C@H]3CN4)nc(OC3CCOCC3)nc2c1OCc1ccc(C(=O)N2CCN(Cc3cccc4c(N5CCC(=O)NC5=O)nn(C)c34)CC2)cc1` (atropisomer, axis not shown) [Example 23], for which the IC50 in assay [1] is 1090 nM. Also, in assay [2], the IC50 came to 1560 nM. Also, in assay [3], the Dmax came to 61% and the DC50 stood at 2810 nM.

Consider `CO[C@H](C)COc1nc(N2C[C@@H]3C[C@H]2CN3)c2cc(C3CC3)c(-c3c(C)c(F)cc4[nH]ncc34)c(OCc3ccc(C(=O)N4CCN(Cc5ccc6c(c5)n(C)c(=O)n6C5CCC(=O)NC5=O)C[C@@H]4C)cc3)c2n1` (stereo partly drawn) [Example 38], for which the IC50 is 51 nM in assay [1] and 31 nM in assay [2]. Also, in assay [3], the Dmax was found to be 86%. The DC50 in assay [3] came out at 22 nM.

`Cc1c(F)cc2[nH]ncc2c1-c1c(C2CC2)cc2c(N3C[C@@H]4C[C@H]3CN4)nc(OC3CCOCC3)nc2c1OCc1ccc(C(=O)N2CCN(Cc3ccc4c(c3)c(N3CCC(=O)NC3=O)nn4C)C[C@@H]2C)cc1` (atropisomer, axis not shown) [Example 27]: the IC50 in assay [1] was determined as 1890 nM; in assay [2], 2770 nM. For the same compound, the Dmax in assay [3] is 25%. Also, the “degradation rate at the highest concentration evaluated (printed in DC50 column)” value in assay [3] (at 10 μM) amounted to 25% at 10 μM.

As for `Cc1nc(OC2CCN(C(=O)c3ccc(COc4c(-c5c(C)c(F)cc6[nH]ncc56)c(C5CC5)cc5c(N6C[C@@H]7C[C@H]6CN7)nc(OC6CCOCC6)nc45)cc3)CC2)ccc1N1CCC(=O)NC1=O` (atropisomer, axis not shown) [Example 17], the IC50 in assay [1] was 684 nM. The IC50 in assay [2] was found to be 1340 nM. For the same compound, in assay [3], the Dmax worked out at 52% and the DC50 amounted to 4270 nM.

In the case of `Cc1c(F)cc2[nH]ncc2c1-c1c(C2CC2)cc2c(N3C[C@@H]4C[C@H]3CN4)nc(OC3CCOCC3)nc2c1OCc1ccc(C(=O)N2CCN(Cc3ccc4c(c3)n(C)c(=O)n4C3CCC(=O)NC3=O)CC2)cc1` (stereo partly drawn) [Example 7], the IC50 in assay [1] was 73 nM. The IC50 in assay [2] turned out to be 60 nM. Moreover, in assay [3], the Dmax was found to be 80% and the DC50 worked out at 35 nM.

With `Cc1c(F)cc2[nH]ncc2c1-c1c(C2CC2)cc2c(O[C@H]3CCNC3)cc(OC[C@@H]3CCCO3)nc2c1OCc1ccc(C(=O)N2CCN(Cc3ccc4c(c3)n(C)c(=O)n4C3CCC(=O)NC3=O)C[C@@H]2C)cc1` (stereo partly drawn) [Example 31], the IC50 in assay [1] was 147 nM. Also, the half-maximal inhibitory concentration (IC50) in assay [2] was 158 nM. Also, in assay [3], the Dmax was 71% and the DC50 was 115 nM.

On to `Cc1c(F)cc2[nH]ncc2c1-c1c(C2CC2)cc2c(N3C[C@@H]4C[C@H]3CN4)nc(OC3CCOCC3)nc2c1OCc1ccc(C(=O)N2CCC(CN3CCN(c4cc5c(cc4F)C(=O)N(C4CCC(=O)NC4=O)C5=O)CC3)CC2)cc1` (stereo partly drawn) [Example 2], for which, in assay [1], the inhibition at 10 µM is 55%. In addition, the IC50 in assay [2] was 4770 nM. In addition, in assay [3], the Dmax came out at 59% and the DC50 is 4900 nM.

For `Cc1c(F)cc2[nH]ncc2c1-c1c(C2CC2)cc2c(N3C[C@@H]4C[C@H]3CN4)nc(OC3CCOCC3)nc2c1OCc1ccc(C(=O)N2CC[C@H](N(C)Cc3ccc4c(N5CCC(=O)NC5=O)nn(C)c4c3)C2)cc1` (atropisomer, axis not shown) [Example 20], in assay [1], the IC50 was found to be 884 nM. Besides, in assay [2], the half-maximal inhibitory concentration (IC50) came to 1070 nM. Further, in assay [3], the Dmax amounted to 78% and the DC50 came to 488 nM.
